From ChEMBL document CHEMBL1140941 (J Med Chem, 2009) come the findings set out here.

Activity calls are given as the source filed them. The calls are words filed in the database; no cut-off is given here.

For data set [1], the target named is T1, Peroxisome proliferator-activated receptor gamma (Homo sapiens) (UniProt P37231).
T1 sequence (whole entry): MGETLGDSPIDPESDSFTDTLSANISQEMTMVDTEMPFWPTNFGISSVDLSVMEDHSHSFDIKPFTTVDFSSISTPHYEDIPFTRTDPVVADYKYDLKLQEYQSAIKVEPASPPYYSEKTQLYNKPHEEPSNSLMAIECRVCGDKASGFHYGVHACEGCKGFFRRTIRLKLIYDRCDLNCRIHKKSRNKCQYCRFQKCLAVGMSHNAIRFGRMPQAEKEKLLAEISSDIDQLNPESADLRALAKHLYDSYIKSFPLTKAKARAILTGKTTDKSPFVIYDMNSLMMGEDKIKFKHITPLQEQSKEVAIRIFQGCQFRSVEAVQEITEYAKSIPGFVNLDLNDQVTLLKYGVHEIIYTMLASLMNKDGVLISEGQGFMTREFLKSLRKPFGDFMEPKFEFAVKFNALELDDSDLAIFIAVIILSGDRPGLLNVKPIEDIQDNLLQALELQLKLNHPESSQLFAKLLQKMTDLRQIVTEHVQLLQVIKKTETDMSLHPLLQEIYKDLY
Briefly: Agonist activity at PPARgamma expressed in african green monkey CV1 cells co-expressing PPRE up to 10 uM by luciferase reporter gene assay relative to control. It counts as functional, cell-based. Conditions: CV-1.

Data set [2] concerns the target Oxysterols receptor LXR-alpha (Homo sapiens) (UniProt Q13133). Briefly: Agonist activity at LXRalpha expressed in african green monkey CV1 cells co-expressing LXRE up to 10 uM by luciferase reporter gene assay relative to control. It is filed as functional, cell-based. Conditions: CV-1.
The target in data set [3] is T2, Androgen receptor (Homo sapiens) (UniProt P10275).
T2 sequence (whole entry): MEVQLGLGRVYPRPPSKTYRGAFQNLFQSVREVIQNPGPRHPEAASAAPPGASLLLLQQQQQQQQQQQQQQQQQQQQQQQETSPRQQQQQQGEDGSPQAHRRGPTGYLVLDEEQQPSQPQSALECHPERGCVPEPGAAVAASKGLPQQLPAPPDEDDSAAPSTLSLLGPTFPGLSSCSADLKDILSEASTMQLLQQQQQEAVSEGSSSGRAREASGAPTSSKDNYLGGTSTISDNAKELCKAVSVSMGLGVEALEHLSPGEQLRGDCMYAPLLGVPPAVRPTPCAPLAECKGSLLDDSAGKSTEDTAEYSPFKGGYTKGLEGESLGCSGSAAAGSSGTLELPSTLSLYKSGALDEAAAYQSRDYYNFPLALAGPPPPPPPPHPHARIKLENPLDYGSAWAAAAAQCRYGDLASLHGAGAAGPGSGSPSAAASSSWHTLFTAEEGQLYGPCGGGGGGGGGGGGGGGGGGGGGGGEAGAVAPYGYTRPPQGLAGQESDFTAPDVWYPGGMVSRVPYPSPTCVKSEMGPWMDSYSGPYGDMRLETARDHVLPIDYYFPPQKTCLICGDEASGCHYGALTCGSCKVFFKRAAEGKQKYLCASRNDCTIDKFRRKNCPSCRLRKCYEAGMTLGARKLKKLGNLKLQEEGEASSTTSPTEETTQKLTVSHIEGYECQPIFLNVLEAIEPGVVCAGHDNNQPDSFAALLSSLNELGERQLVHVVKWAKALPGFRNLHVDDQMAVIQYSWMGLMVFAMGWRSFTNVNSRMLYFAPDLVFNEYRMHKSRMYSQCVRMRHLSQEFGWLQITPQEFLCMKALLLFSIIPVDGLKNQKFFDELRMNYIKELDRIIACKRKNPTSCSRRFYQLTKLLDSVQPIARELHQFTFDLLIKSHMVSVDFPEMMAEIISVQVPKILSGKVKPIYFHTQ
The data set is described as follows: Agonist activity at human gal-AR expressed in african green monkey CV1 cells co-expressing MH100 with pGRIP1 co-factor by luciferase reporter gene assay. It counts as functional, cell-based. To be noted: CV-1.

For data set [4], the target named is T3, Estrogen receptor (Homo sapiens) (UniProt P03372).
T3 sequence (whole entry): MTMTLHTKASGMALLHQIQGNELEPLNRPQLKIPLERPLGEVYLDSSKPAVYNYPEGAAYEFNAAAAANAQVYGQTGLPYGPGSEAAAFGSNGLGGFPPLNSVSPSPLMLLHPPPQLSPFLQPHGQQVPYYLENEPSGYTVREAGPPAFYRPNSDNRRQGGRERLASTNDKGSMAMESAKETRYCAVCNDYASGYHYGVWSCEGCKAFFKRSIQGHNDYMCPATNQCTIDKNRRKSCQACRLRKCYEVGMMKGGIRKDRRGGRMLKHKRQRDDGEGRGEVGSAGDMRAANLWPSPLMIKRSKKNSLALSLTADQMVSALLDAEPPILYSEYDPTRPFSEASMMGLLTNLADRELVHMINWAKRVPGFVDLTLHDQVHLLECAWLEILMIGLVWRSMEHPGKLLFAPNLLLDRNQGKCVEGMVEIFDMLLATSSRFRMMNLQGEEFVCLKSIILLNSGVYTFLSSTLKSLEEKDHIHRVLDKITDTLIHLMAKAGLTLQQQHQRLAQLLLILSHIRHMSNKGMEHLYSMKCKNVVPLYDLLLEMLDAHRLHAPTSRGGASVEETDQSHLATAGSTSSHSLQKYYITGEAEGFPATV
The data set is described as follows: Antagonist activity at gal-ERalpha expressed in african green monkey CV1 cells co-expressing MH100 at 10 uM by luciferase reporter gene assay. It counts as functional, cell-based. To be noted: CV-1.

The target in data set [5] is T4, Peroxisome proliferator-activated receptor alpha (Homo sapiens) (UniProt Q07869).
T4 sequence (whole entry): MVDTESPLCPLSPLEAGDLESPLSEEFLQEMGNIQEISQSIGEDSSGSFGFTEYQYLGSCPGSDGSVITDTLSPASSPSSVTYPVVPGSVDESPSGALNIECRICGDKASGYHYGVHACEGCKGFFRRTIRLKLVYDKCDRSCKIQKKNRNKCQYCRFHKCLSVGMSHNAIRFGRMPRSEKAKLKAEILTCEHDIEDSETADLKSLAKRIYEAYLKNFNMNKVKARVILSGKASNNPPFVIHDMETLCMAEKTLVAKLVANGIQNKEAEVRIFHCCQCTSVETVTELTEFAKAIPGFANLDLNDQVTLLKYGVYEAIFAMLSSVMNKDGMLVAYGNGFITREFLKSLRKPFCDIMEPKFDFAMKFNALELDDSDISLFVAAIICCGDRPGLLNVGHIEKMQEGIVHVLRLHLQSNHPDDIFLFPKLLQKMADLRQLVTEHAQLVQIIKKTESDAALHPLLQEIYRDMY
Briefly: Antagonist activity at PPARalpha expressed in african green monkey CV1 cells co-expressing MH100 by luciferase reporter gene assay. It is filed as functional, cell-based. To be noted: CV-1.

The nature of data set [6]: Cmax in CD rat at 3 mg/kg, po. It is filed as ADME, organism-based. Also on record: dose 3 mg/kg, route oral. To be noted: in vivo.
The next data set relates to Mus musculus. Briefly: Inhibition of preatherosclerotic lesion in LDLR knockout mouse model at 1 mg/kg, po administered for 6 weeks by en-face analysis. It counts as functional. Also on record: scale not given: the % may be the effect or the level left.
The target of data set [7] is Nuclear receptor subfamily 1 group I member 2 (Homo sapiens, UniProt O75469). Briefly: Agonist activity at SXR expressed in african green monkey CV1 cells co-expressing MH100 by luciferase reporter gene assay. It counts as functional, cell-based. To be noted: cv-1.
Nuclear receptor subfamily 1 group I member 2, sequence (O75469 whole entry): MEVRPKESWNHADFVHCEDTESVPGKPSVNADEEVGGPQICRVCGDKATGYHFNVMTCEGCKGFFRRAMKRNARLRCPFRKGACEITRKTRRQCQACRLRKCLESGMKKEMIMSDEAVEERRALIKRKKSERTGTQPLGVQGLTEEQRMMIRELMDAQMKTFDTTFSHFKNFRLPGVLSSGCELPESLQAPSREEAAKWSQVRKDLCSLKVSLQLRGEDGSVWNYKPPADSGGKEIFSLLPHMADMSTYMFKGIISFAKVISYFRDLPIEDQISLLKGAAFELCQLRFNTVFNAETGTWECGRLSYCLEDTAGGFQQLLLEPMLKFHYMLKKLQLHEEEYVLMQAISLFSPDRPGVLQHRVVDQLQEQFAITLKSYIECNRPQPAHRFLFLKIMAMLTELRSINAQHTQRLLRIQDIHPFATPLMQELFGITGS
In data set [8] the target is Retinoic acid receptor gamma (Homo sapiens) (UniProt P13631). Briefly: Agonist activity at gal-RARgamma expressed in african green monkey CV1 cells co-expressing MH100 by luciferase reporter gene assay. It is filed as functional, cell-based. To be noted: CV-1.
Retinoic acid receptor gamma (Homo sapiens), sequence (P13631 whole entry): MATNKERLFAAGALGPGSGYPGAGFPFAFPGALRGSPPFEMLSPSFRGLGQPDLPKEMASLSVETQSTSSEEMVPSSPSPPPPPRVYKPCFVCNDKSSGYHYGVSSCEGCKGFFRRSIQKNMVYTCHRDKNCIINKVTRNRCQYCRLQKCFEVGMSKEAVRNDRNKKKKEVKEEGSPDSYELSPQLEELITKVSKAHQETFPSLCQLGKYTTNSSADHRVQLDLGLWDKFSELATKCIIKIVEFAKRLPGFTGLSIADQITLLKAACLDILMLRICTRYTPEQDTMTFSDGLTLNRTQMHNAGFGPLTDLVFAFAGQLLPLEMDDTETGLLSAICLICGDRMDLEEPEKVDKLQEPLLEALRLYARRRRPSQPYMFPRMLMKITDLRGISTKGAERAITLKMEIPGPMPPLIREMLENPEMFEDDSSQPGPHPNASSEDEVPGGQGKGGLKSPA

Oxysterols receptor LXR-alpha (Homo sapiens), sequence (Q13133 whole entry): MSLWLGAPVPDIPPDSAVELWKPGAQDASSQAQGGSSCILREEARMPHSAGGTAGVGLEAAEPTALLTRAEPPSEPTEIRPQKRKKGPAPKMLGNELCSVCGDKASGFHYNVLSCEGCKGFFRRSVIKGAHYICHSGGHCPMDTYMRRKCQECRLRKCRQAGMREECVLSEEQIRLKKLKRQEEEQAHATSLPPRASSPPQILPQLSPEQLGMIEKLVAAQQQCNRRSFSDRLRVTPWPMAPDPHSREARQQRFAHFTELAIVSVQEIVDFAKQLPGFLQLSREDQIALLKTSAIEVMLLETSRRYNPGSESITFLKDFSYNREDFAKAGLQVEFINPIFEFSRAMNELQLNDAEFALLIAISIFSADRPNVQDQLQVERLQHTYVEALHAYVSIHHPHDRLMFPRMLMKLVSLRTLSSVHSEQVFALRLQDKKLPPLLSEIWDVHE

For `CC(C)OC(=O)C1=CN(C(=O)c2ccc(F)c(F)c2)CC(C)(C)c2c1[nH]c1ccccc21` [TUROFEXORATE ISOPROPYL], the outcome in data set [1], in data set [2], in data set [3], in data set [5] and in [8] was inactive. The inhibition in [4] was found to be 24%. The compound also came in with a Cmax in [6] of 500 nM. In addition, the figures for the Activity (with Mus musculus; in data set [7]) were 18% and “Not Active”, respectively.
